# Experimental data as given in PubChem BioAssay (NCI).
#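 Cells were grown in 96-well plates and exposed to each compound for 48 hours at five concentrations; endpoints were interpolated linearly between bracketing concentrations, or set to the highest concentration if not reached. GI50 is the concentration that inhibits growth by half. The concentration for full growth arrest is given as TGI.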
# Tests used:
# Assay in all cases: DTP human tumour cell line panel, 48 h
# [1] = test system: A549 NSCLC
# [2] = test system: NCI-H460 lung
# [3] = test system: SK-MEL-28 melanoma
# [4] = test system: UO-31 renal
# [5] = test system: HL-60(TB) leukemia
# [6] = test system: KM12 colon
# [7] = test system: SK-MEL-2 melanoma
# [8] = test system: NCI/ADR-RES ovarian
# [9] = test system: OVCAR-4 ovarian
# [10] = test system: COLO 205 colon
# [11] = test system: HT29 colon
# [12] = test system: HS 578T breast
# [13] = test system: MCF7 breast
# [14] = test system: PC-3 prostate
# [15] = test system: SF-268 CNS
# [16] = test system: MDA-MB-468 breast
# [17] = test system: M14 melanoma
# [18] = test system: SF-539 CNS
# [19] = test system: 786-0 renal
# [20] = test system: MOLT-4 leukemia
# [21] = test system: SNB-75 CNS
# [22] = test system: HCC-2998 colon
# [23] = test system: SNB-19 CNS
# [24] = test system: SR leukemia
# [25] = test system: A498 renal
# [26] = test system: IGROV1 ovarian
# [27] = test system: SK-OV-3 ovarian
# [28] = test system: HOP-92 NSCLC
# [29] = test system: NCI-H23 lung
# [30] = test system: T-47D breast
# [31] = test system: MALME-3M melanoma
# [32] = test system: K-562 leukemia
# [33] = test system: MDA-MB-231 breast
# [34] = test system: SK-MEL-5 melanoma
# [35] = test system: DU-145 prostate
# [36] = test system: OVCAR-3 ovarian
# [37] = test system: TK-10 renal
# [38] = test system: U251 CNS
# [39] = test system: HCT-15 colon
# [40] = test system: RPMI-8226 leukemia
# [41] = test system: SW-620 colon
# [42] = test system: CCRF-CEM leukemia
# [43] = test system: NCI-H226 lung
# [44] = test system: MDA-MB-435
# [45] = test system: UACC-62 melanoma
# [46] = test system: CAKI-1 renal
# [47] = test system: HCT-116 colon
# [48] = test system: RXF 393 renal
# [49] = test system: ACHN renal
# [50] = test system: NCI-H522 lung
# [51] = test system: EKVX NSCLC
# [52] = test system: SF-295 CNS
# [53] = test system: LOX IMVI melanoma
# [54] = test system: UACC-257 melanoma
# [55] = test system: OVCAR-5 ovarian
# [56] = test system: HOP-62 NSCLC
# [57] = test system: SN12C renal
# [58] = test system: OVCAR-8 ovarian
smiles,measurement,setting,value
COc1ccc2[nH]cc(-c3cc(N)n4nc(-c5cn(C)c6ccccc56)cc4n3)c2c1,GI50,[1],1.54 µM
same,TGI,[1],2.9 µM
same,GI50,[2],1.9 µM
same,TGI,[2],3.62 µM
same,GI50,[3],1.78 µM
same,TGI,[3],3.23 µM
same,GI50,[4],1.46 µM
same,TGI,[4],2.78 µM
same,GI50,[5],1.39 µM
same,TGI,[5],3.58 µM
same,GI50,[6],2.03 µM
same,TGI,[6],4.22 µM
same,GI50,[7],1.67 µM
same,TGI,[7],3.13 µM
same,GI50,[8],1.89 µM
same,TGI,[8],3.82 µM
same,GI50,[9],1.7 µM
same,TGI,[9],3.19 µM
same,GI50,[10],1.79 µM
same,TGI,[10],3.41 µM
same,GI50,[11],1.8 µM
same,TGI,[11],3.22 µM
same,GI50,[12],2.05 µM
same,TGI,[12],4.83 µM
same,GI50,[13],1.46 µM
same,TGI,[13],3.25 µM
same,GI50,[14],1.67 µM
same,TGI,[14],3.52 µM
same,GI50,[15],1.94 µM
same,TGI,[15],4.05 µM
same,GI50,[16],1.57 µM
same,TGI,[16],3.06 µM
same,GI50,[17],1.79 µM
same,TGI,[17],3.93 µM
same,GI50,[18],1.61 µM
same,TGI,[18],3.01 µM
same,GI50,[19],1.59 µM
same,TGI,[19],3.12 µM
same,GI50,[20],1.59 µM
same,TGI,[20],4.38 µM
same,GI50,[21],1.4 µM
same,TGI,[21],2.81 µM
same,GI50,[22],1.94 µM
same,TGI,[22],3.38 µM
same,GI50,[23],1.66 µM
same,TGI,[23],3.11 µM
same,GI50,[24],0.343 µM
same,TGI,[24],1.73 µM
same,GI50,[25],1.73 µM
same,TGI,[25],3.23 µM
same,GI50,[26],1.62 µM
same,TGI,[26],3.05 µM
same,GI50,[27],1.81 µM
same,TGI,[27],3.36 µM
same,GI50,[28],1.68 µM
same,TGI,[28],3.24 µM
same,GI50,[29],1.97 µM
same,TGI,[29],3.95 µM
same,GI50,[30],2.01 µM
same,TGI,[30],4.43 µM
same,GI50,[31],1.74 µM
same,TGI,[31],3.14 µM
same,GI50,[32],0.614 µM
same,TGI,[32],6.66 µM
same,GI50,[33],1.51 µM
same,TGI,[33],2.84 µM
same,GI50,[34],1.76 µM
same,TGI,[34],3.14 µM
same,GI50,[35],1.82 µM
same,TGI,[35],3.52 µM
same,GI50,[36],1.8 µM
same,TGI,[36],3.34 µM
same,GI50,[37],1.89 µM
same,TGI,[37],3.37 µM
same,GI50,[38],1.69 µM
same,TGI,[38],3.15 µM
same,GI50,[39],1.23 µM
same,TGI,[39],2.52 µM
same,GI50,[40],1.94 µM
same,TGI,[40],5 µM
same,GI50,[41],1.81 µM
same,TGI,[41],3.47 µM
same,GI50,[42],1.86 µM
same,TGI,[42],6.44 µM
same,GI50,[43],1.87 µM
same,TGI,[43],4.74 µM
same,GI50,[44],1.77 µM
same,TGI,[44],3.23 µM
same,GI50,[45],1.62 µM
same,TGI,[45],2.99 µM
same,GI50,[46],1.73 µM
same,TGI,[46],3.12 µM
same,GI50,[47],1.54 µM
same,TGI,[47],3.69 µM
same,GI50,[48],1.74 µM
same,TGI,[48],3.39 µM
same,GI50,[49],1.87 µM
same,TGI,[49],3.43 µM
same,GI50,[50],1.52 µM
same,TGI,[50],2.99 µM
same,GI50,[51],1.8 µM
same,TGI,[51],3.89 µM
same,GI50,[52],1.78 µM
same,TGI,[52],3.34 µM
same,GI50,[53],1.76 µM
same,TGI,[53],3.28 µM
same,GI50,[54],1.68 µM
same,TGI,[54],3.1 µM
same,GI50,[55],1.73 µM
same,TGI,[55],3.27 µM
same,GI50,[56],1.89 µM
same,TGI,[56],3.76 µM
same,GI50,[57],1.53 µM
same,TGI,[57],2.86 µM
same,GI50,[58],1.75 µM
same,TGI,[58],3.27 µM
